One test concerns HCV 1b genotype. Put plainly: HCV replicon assay (HCV-neo replicon cells, wild-type). The format is cell-based, Hepatitis C virus. Particulars: HCV 1b genotype replicon; class symbols; read-out: EC50 Range against HCV 1b. In outline:
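Inhibition was tested in replicon-bearing cells, both wild-type HCV-neo and lines with NS5A resistance substitutions, using the O'Boyle et al. 2005 replicon method or luciferase-reporter formats.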
Take `O=C(Nc1ccc(-c2cnc(-c3ccc(NC(=O)[C@@H]4CCCN4C(=O)CN4CCCCC4)cc3)o2)cc1)[C@@H]1CCCN1C(=O)CN1CCCCC1` [XY-41, (2S,2′S)-N,N′-(1,3-oxazole-2,5-diyldi-4,1-phenylene)bis(1-(1-piperidinylacetyl)-2-pyrrolidinecarboxamide)]: the EC50 fell in the range of 1000 to 10000 nM.

Still in this test, the particulars now being: Hepatitis C virus, HCV 1b genotype replicon; class symbols; read-out: EC50 Range against HCV 1b.
Turning to `CC[C@@H](C(=O)N1CCC[C@H]1C(=O)Nc1ccc(-c2cnc(-c3ccc(NC(=O)[C@@H]4CCCN4C(=O)[C@H](CC)c4ccccc4)cc3)o2)cc1)c1ccccc1` [XY-20, (2S,2′S)-N,N′-(1,3-oxazole-2,5-diyldi-4,1-phenylene)bis(1-((2R)-2-phenylbutanoyl)-2-pyrrolidinecarboxamide)], the EC50 is 4.57 to 99 nM.

As for `Cn1ccnc1C(=O)N1CCC[C@H]1C(=O)Nc1ccc(-c2cnc(-c3ccc(NC(=O)[C@@H]4CCCN4C(=O)c4nccn4C)cc3)o2)cc1` [XY-21, (2S,2′S)-N,N′-(1,3-oxazole-2,5-diyldi-4,1-phenylene)bis(1-((1-methyl-1H-imidazol-2-yl)carbonyl)-2-pyrrolidinecarboxamide)], the EC50 was 1000 to 10000 nM.

As to `O=C(Nc1ccc(-c2cnc(-c3ccc(NC(=O)[C@@H]4CCCN4C(=O)Cc4ccc(F)cc4)cc3)o2)cc1)[C@@H]1CCCN1C(=O)Cc1ccc(F)cc1` [XY-22, (2S,2′S)-N,N′-(1,3-oxazole-2,5-diyldi-4,1-phenylene)bis(1-((4-fluorophenyl)acetyl)-2-pyrrolidinecarboxamide)], the EC50 is under 4.57 nM.

`CC(=O)N1CCC(C(=O)N2CCC[C@H]2C(=O)Nc2ccc(-c3cnc(-c4ccc(NC(=O)[C@@H]5CCCN5C(=O)C5CCN(C(C)=O)CC5)cc4)o3)cc2)CC1` [XY-23, (2S,2′S)-N,N′-(1,3-oxazole-2,5-diyldi-4,1-phenylene)bis(1-((1-acetyl-4-piperidinyl)carbonyl)-2-pyrrolidinecarboxamide)]: the EC50 was 100 to 999 nM.

For the molecule `O=C(Nc1ccc(-c2cnc(-c3ccc(NC(=O)[C@@H]4CCCN4C(=O)CC4CC4)cc3)o2)cc1)[C@@H]1CCCN1C(=O)CC1CC1` [XY-24, (2S,2′S)-N,N′-(1,3-oxazole-2,5-diyldi-4,1-phenylene)bis(1-(cyclopropylacetyl)-2-pyrrolidinecarboxamide)], the EC50 is 100 to 999 nM.

On to `O=C(Nc1ccc(-c2cnc(-c3ccc(NC(=O)[C@@H]4CCCN4C(=O)c4sccc4Cl)cc3)o2)cc1)[C@@H]1CCCN1C(=O)c1sccc1Cl` [XY-25, (2S,2′S)-N,N′-(1,3-oxazole-2,5-diyldi-4,1-phenylene)bis(1-((3-chloro-2-thienyl)carbonyl)-2-pyrrolidinecarboxamide)], for which the EC50 fell in the range of 1000 to 10000 nM.

For `CO[C@@H](C(=O)N1CCC[C@H]1C(=O)Nc1ccc(-c2cnc(-c3ccc(NC(=O)[C@@H]4CCCN4C(=O)[C@H](OC)c4ccccc4)cc3)o2)cc1)c1ccccc1` [XY-26, (2S,2′S)-N,N′-(1,3-oxazole-2,5-diyldi-4,1-phenylene)bis(1-((2R)-2-methoxy-2-phenylacetyl)-2-pyrrolidinecarboxamide)], the EC50 was 1000 to 10000 nM.

With `Cc1cc(C(=O)N2CCC[C@H]2C(=O)Nc2ccc(-c3cnc(-c4ccc(NC(=O)[C@@H]5CCCN5C(=O)c5cc(C)c(C)o5)cc4)o3)cc2)oc1C` [XY-27, (2S,2′S)-N,N′-(1,3-oxazole-2,5-diyldi-4,1-phenylene)bis(1-(4,5-dimethyl-2-furoyl)-2-pyrrolidinecarboxamide)], the EC50 lay within 100 to 999 nM.

Take `Cc1noc(C)c1C(=O)N1CCC[C@H]1C(=O)Nc1ccc(-c2cnc(-c3ccc(NC(=O)[C@@H]4CCCN4C(=O)c4c(C)noc4C)cc3)o2)cc1` [XY-28, (2S,2′S)-N,N′-(1,3-oxazole-2,5-diyldi-4,1-phenylene)bis(1-((3,5-dimethyl-4-isoxazolyl)carbonyl)-2-pyrrolidinecarboxamide)]: the EC50 lay in the range of 100 to 999 nM.

Turning to `COc1ccc(C(=O)N2CCC[C@H]2C(=O)Nc2ccc(-c3cnc(-c4ccc(NC(=O)[C@@H]5CCCN5C(=O)c5ccc(OC)cc5)cc4)o3)cc2)cc1` [XY-29, (2S,2′S)-N,N′-(1,3-oxazole-2,5-diyldi-4,1-phenylene)bis(1-(4-methoxybenzoyl)-2-pyrrolidinecarboxamide)], the EC50 fell in the range of 100 to 999 nM.

Consider `Cc1ncccc1C(=O)N1CCC[C@H]1C(=O)Nc1ccc(-c2cnc(-c3ccc(NC(=O)[C@@H]4CCCN4C(=O)c4cccnc4C)cc3)o2)cc1` [XY-30, (2S,2′S)-N,N′-(1,3-oxazole-2,5-diyldi-4,1-phenylene)bis(1-((2-methyl-3-pyridinyl)carbonyl)-2-pyrrolidinecarboxamide)], for which the concentration giving a half-maximal response (EC50) fell in the range of 1000 to 10000 nM.

Consider `O=C(Nc1ccc(-c2cnc(-c3ccc(NC(=O)[C@@H]4CCCN4C(=O)C4CCCO4)cc3)o2)cc1)[C@@H]1CCCN1C(=O)C1CCCO1` (stereo partly drawn) [XY-31, (2S,2′S)-N,N′-(1,3-oxazole-2,5-diyldi-4,1-phenylene)bis(1-(tetrahydro-2-furanylcarbonyl)-2-pyrrolidinecarboxamide)], for which the EC50 fell in the range of 4.57 to 99 nM.

In the case of `O=C(Nc1ccc(-c2cnc(-c3ccc(NC(=O)[C@@H]4CCCN4C(=O)[C@H]4CCCO4)cc3)o2)cc1)[C@@H]1CCCN1C(=O)[C@H]1CCCO1` [XY-32, (2S,2′S)-N,N′-(1,3-oxazole-2,5-diyldi-4,1-phenylene)bis(1-((2R)-tetrahydro-2-furanylcarbonyl)-2-pyrrolidinecarboxamide)], the EC50 was 4.57 to 99 nM.

For `O=C(Nc1ccc(-c2cnc(-c3ccc(NC(=O)[C@@H]4CCCN4C(=O)c4ccc[nH]4)cc3)o2)cc1)[C@@H]1CCCN1C(=O)c1ccc[nH]1` [XY-33, (2S,2′S)-N,N′-(1,3-oxazole-2,5-diyldi-4,1-phenylene)bis(1-(1H-pyrrol-2-ylcarbonyl)-2-pyrrolidinecarboxamide)], the EC50 lay within 1000 to 10000 nM.

For the molecule `Cc1cc(C(=O)N2CCC[C@H]2C(=O)Nc2ccc(-c3cnc(-c4ccc(NC(=O)[C@@H]5CCCN5C(=O)c5cc(C)oc5C)cc4)o3)cc2)c(C)o1` [XY-34, (2S,2′S)-N,N′-(1,3-oxazole-2,5-diyldi-4,1-phenylene)bis(1-(2,5-dimethyl-3-furoyl)-2-pyrrolidinecarboxamide)], the EC50 lay within 100 to 999 nM.

As to `COc1ccccc1CC(=O)N1CCC[C@H]1C(=O)Nc1ccc(-c2cnc(-c3ccc(NC(=O)[C@@H]4CCCN4C(=O)Cc4ccccc4OC)cc3)o2)cc1` [XY-35, (2S,2′S)-N,N′-(1,3-oxazole-2,5-diyldi-4,1-phenylene)bis(1-((2-methoxyphenyl)acetyl)-2-pyrrolidinecarboxamide)], the EC50 lay within 100 to 999 nM.

Regarding `O=C(Nc1ccc(-c2cnc(-c3ccc(NC(=O)[C@@H]4CCCN4C(=O)c4ccc5c(c4)OCO5)cc3)o2)cc1)[C@@H]1CCCN1C(=O)c1ccc2c(c1)OCO2` [XY-36, (2S,2′S)-N,N′-(1,3-oxazole-2,5-diyldi-4,1-phenylene)bis(1-(1,3-benzodioxol-5-ylcarbonyl)-2-pyrrolidinecarboxamide)], the EC50 was in the range of 100 to 999 nM.

On to `O=C(Nc1ccc(-c2cnc(-c3ccc(NC(=O)[C@@H]4CCCN4C(=O)c4ccco4)cc3)o2)cc1)[C@@H]1CCCN1C(=O)c1ccco1` [XY-37, (2S,2′S)-N,N′-(1,3-oxazole-2,5-diyldi-4,1-phenylene)bis(1-(2-furoyl)-2-pyrrolidinecarboxamide)], for which the EC50 lay within 100 to 999 nM.

In the case of `O=C(Nc1ccc(-c2cnc(-c3ccc(NC(=O)[C@@H]4CCCN4C(=O)c4ccoc4)cc3)o2)cc1)[C@@H]1CCCN1C(=O)c1ccoc1` [XY-38, (2S,2′S)-N,N′-(1,3-oxazole-2,5-diyldi-4,1-phenylene)bis(1-(3-furoyl)-2-pyrrolidinecarboxamide)], the EC50 fell in the range of 4.57 to 99 nM.

`CC1(C(=O)N2CCC[C@H]2C(=O)Nc2ccc(-c3cnc(-c4ccc(NC(=O)[C@@H]5CCCN5C(=O)C5(C)CC5)cc4)o3)cc2)CC1` [XY-39, (2S,2′S)-N,N′-(1,3-oxazole-2,5-diyldi-4,1-phenylene)bis(1-((1-methylcyclopropyl)carbonyl)-2-pyrrolidinecarboxamide)]: the EC50 lay within 100 to 999 nM.

`Cn1cccc1CC(=O)N1CCC[C@H]1C(=O)Nc1ccc(-c2cnc(-c3ccc(NC(=O)[C@@H]4CCCN4C(=O)Cc4cccn4C)cc3)o2)cc1` [XY-40, (2S,2′S)-N,N′-(1,3-oxazole-2,5-diyldi-4,1-phenylene)bis(1-((1-methyl-1H-pyrrol-2-yl)acetyl)-2-pyrrolidinecarboxamide)]: the EC50 is 100 to 999 nM.

For the molecule `Cn1cnc(CC(=O)N2CCC[C@H]2C(=O)Nc2ccc(-c3cnc(-c4ccc(NC(=O)[C@@H]5CCCN5C(=O)Cc5cn(C)cn5)cc4)o3)cc2)c1` [XY-42, (2S,2′S)-N,N′-(1,3-oxazole-2,5-diyldi-4,1-phenylene)bis(1-((1-methyl-1H-imidazol-4-yl)acetyl)-2-pyrrolidinecarboxamide)], the EC50 fell in the range of 1000 to 10000 nM.

For `Cc1ccc(C)c(C(=O)N2CCC[C@H]2C(=O)Nc2ccc(-c3cnc(-c4ccc(NC(=O)[C@@H]5CCCN5C(=O)c5cc(C)ccc5C)cc4)o3)cc2)c1` [XY-43, (2S,2′S)-N,N′-(1,3-oxazole-2,5-diyldi-4,1-phenylene)bis(1-(2,5-dimethylbenzoyl)-2-pyrrolidinecarboxamide)], the EC50 was in the range of 1000 to 10000 nM.

For `O=C(Nc1ccc(-c2cnc(-c3ccc(NC(=O)[C@@H]4C[C@@H](O)CN4C(=O)CC4CC4)cc3)o2)cc1)[C@@H]1C[C@@H](O)CN1C(=O)CC1CC1` [XY-44, (2S,4R,2′S,4′R)-N,N′-(1,3-oxazole-2,5-diyldi-4,1-phenylene)bis(1-(cyclopropylacetyl)-4-hydroxy-2-pyrrolidinecarboxamide)], the EC50 was 1000 to 10000 nM.

In the case of `O=C(Nc1ccc(-c2cnc(-c3ccc(NC(=O)[C@@H]4C[C@@H](O)CN4C(=O)Cc4cccnc4)cc3)o2)cc1)[C@@H]1C[C@@H](O)CN1C(=O)Cc1cccnc1` [XY-45, (2S,4R,2′S,4′R)-N,N′-(1,3-oxazole-2,5-diyldi-4,1-phenylene)bis(4-hydroxy-1-(3-pyridinylacetyl)-2-pyrrolidinecarboxamide)], the EC50 fell in the range of 1000 to 10000 nM.

The same test, now with this note: Hepatitis C virus, HCV 1b genotype replicon; read-out: EC50 1b.
As to `CC[C@@H](C(=O)N1CCC[C@H]1C(=O)Nc1ccc(-c2cnc(-c3ccc(NC(=O)[C@@H]4CCCN4C(=O)[C@H](CC)c4ccccc4)cc3)o2)cc1)c1ccccc1` [XY-20, (2S,2′S)-N,N′-(1,3-oxazole-2,5-diyldi-4,1-phenylene)bis(1-((2R)-2-phenylbutanoyl)-2-pyrrolidinecarboxamide)], the EC50 came to 62 nM.

Consider `O=C(Nc1ccc(-c2cnc(-c3ccc(NC(=O)[C@@H]4CCCN4C(=O)Cc4ccc(F)cc4)cc3)o2)cc1)[C@@H]1CCCN1C(=O)Cc1ccc(F)cc1` [XY-22, (2S,2′S)-N,N′-(1,3-oxazole-2,5-diyldi-4,1-phenylene)bis(1-((4-fluorophenyl)acetyl)-2-pyrrolidinecarboxamide)], for which the EC50 is under 4.5 nM.

Regarding `O=C(Nc1ccc(-c2cnc(-c3ccc(NC(=O)[C@@H]4CCCN4C(=O)C4CCCO4)cc3)o2)cc1)[C@@H]1CCCN1C(=O)C1CCCO1` (stereo partly drawn) [XY-31, (2S,2′S)-N,N′-(1,3-oxazole-2,5-diyldi-4,1-phenylene)bis(1-(tetrahydro-2-furanylcarbonyl)-2-pyrrolidinecarboxamide)], the EC50 was 54 nM.

The values above are taken from patent US8735398B2 (Bristol-Myers Squibb Company, priority 2009, dated 2014).
